Like-named read-outs stand apart in the source and are kept apart here.
Key:
RCC II = molecular target: T1, RCC II (Rattus norvegicus, UniProt P21913+Q641Z9+Q6PCT8+Q920L2); assay: RCC II activity in submitochondrial particles; type: biochemical; set-up: key: activity relative to DMSO-treated controls (control set as 1 = 100%); conditions: relative to DMSO treated samples
T1 construct: Submitochondrial particles were prepared by subjecting the intact mitochondria to three successive freeze–thaw cycles; from tissue; host or cells: rat liver mitochondria, used as submitochondrial particles
Summary of the method: (§1)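 First, submitochondrial particles (1 mg/ml) are incubated with inhibitor for 15 min. Next, complex activities are followed spectrophotometrically, with RCC I taken as the difference between buffers lacking and containing rotenone. Finally, activities are expressed relative to DMSO controls set at 1.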

[1] = tested on: isolated rat liver mitochondria; conditions: positive control alamethicin treated samples
[2] = tested on: isolated rat liver mitochondria; assay: Mitochondrial oxygen consumption (glutamate/malate or succinate driven, state 4 and state 3); type: biochemical; conditions: DMSO treated samples set as 1; for State 3 respiration driven by succinate at 10XCmax: key: 0 indicates that the drug had no effects (negative); for State 3 respiration driven by succinate at 1XCmax: key: 0 indicates that the drug had no effects (negative)
Summary of the method: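 Rat liver mitochondria (1 mg/ml protein) exposed 5 min to kinase inhibitors in 0.1% DMSO, then O2 consumption measured by Clark-type electrode with glutamate/malate or succinate (state 4), ADP added after 3 min (state 3). Rates normalized to 0.1% DMSO controls set to 1.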

RCC III = RCC III activity in submitochondrial particles; type: biochemical, rat; set-up: key to RCC III at 100XCmax: activity relative to DMSO-treated controls (control set as 1 = 100%); conditions: 100XCmax; relative to DMSO treated samples
Summary of the method: as §1

[3] = therapeutic maximal blood concentration, ref product labeling, cited from earlier work
[4] = tested on: isolated rat liver mitochondria; assay: Mitochondrial inner membrane potential (MMP), Rhodamine 123; type: biochemical; conditions: difference in signal between KI and DMSO treated samples at the end of experiments
Excerpt: Fig. 3 KI effects on mitochondrial inner membrane potential (MMP). […] In a, c, data are means and standard derivations from three separate experiments. *p < 0.05 as compared to DMSO-treated samples at the end of experiments. In b, data are means of two independent experiments

RCC V = RCC V activity in submitochondrial particles; type: biochemical, rat; conditions: relative to DMSO treated samples; for RCC V at 5XCmax: key: 0 indicates that the drug had no effects (negative)
Summary of the method: as §1

[5] = tested on: isolated rat liver mitochondria; assay: Mitochondrial ROS production (CM-H2DCFDA); conditions: DMSO treated samples set as 1
RCC I = RCC I activity in submitochondrial particles; type: biochemical, rat; set-up: key to RCC I at 10XCmax / RCC I at 100XCmax / RCC I at 50XCmax / RCC I at 30XCmax / RCC I at 20XCmax: activity relative to DMSO-treated controls (control set as 1 = 100%); conditions: 10XCmax; relative to DMSO treated samples
Summary of the method: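 Activity relative to DMSO (set as 1) after 15-min exposure of submitochondrial particles (1 mg/ml) to compound. RCC I is defined as rotenone-sensitive activity and RCC II is followed at 600 nm over 6 min.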

T1 sequence (Q920L2 35-656): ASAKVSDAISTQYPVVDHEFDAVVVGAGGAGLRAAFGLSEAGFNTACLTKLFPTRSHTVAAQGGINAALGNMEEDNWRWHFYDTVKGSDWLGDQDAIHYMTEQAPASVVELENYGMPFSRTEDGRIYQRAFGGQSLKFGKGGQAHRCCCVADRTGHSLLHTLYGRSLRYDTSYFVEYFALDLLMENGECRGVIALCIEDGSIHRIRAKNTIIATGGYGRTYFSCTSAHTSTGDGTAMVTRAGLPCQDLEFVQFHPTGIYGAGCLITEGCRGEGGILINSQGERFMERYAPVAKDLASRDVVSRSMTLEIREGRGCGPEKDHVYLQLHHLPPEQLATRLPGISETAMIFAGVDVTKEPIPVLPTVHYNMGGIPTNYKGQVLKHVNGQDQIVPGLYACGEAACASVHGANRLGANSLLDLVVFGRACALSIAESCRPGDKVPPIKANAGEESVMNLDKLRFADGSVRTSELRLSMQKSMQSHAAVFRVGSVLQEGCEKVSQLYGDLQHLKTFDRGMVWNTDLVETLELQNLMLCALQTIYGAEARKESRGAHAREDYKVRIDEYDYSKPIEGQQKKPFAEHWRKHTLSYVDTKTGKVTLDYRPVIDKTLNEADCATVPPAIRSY
T1 sequence (P21913 31-282): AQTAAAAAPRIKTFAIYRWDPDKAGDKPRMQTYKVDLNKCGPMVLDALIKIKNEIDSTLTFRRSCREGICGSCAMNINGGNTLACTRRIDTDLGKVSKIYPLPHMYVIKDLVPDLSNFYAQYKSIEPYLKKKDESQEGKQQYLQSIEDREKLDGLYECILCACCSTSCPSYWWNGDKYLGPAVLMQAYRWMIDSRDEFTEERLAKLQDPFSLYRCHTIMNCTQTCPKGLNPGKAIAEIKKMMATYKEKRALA
T1 sequence (Q641Z9 1-169): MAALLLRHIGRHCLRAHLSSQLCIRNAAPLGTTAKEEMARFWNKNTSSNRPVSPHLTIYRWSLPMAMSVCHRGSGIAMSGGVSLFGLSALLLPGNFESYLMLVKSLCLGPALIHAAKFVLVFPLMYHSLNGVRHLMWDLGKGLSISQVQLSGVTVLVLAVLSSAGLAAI
T1 sequence (Q6PCT8 57-159): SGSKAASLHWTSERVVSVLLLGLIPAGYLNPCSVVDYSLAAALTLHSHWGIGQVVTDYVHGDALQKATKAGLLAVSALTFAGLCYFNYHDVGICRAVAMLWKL

## Cc1nc(Nc2ncc(C(=O)Nc3c(C)cccc3Cl)s2)cc(N2CCN(CCO)CC2)n1 [dasatinib (free base)]
RCC II; 1.0XCmax
  RCC II at 1.0XCmax: 0
RCC II; 2.5XCmax
  RCC II at 2.5XCmax: 0
RCC II; 5XCmax
  RCC II at 5XCmax: 0
RCC II; 10XCmax
  RCC II at 10XCmax: 0
RCC II; 20XCmax
  RCC II at 20XCmax: 0
RCC II; 30XCmax
  RCC II at 30XCmax: 0
RCC II; 50XCmax
  RCC II at 50XCmax: 0
RCC II; 100XCmax
  RCC II at 100XCmax: 0
[1]; 1XCmax
  Cytochrome c release 1XCmax: 0
[1]; 2.5XCmax
  Cytochrome c release 2.5XCmax: 0
[1]; 5XCmax
  Cytochrome c release 5XCmax: 0
[1]; 10XCmax
  Cytochrome c release 10XCmax: 0
[1]; 20XCmax
  Cytochrome c release 20XCmax: 0
[1]; 30XCmax
  Cytochrome c release 30XCmax: 0
[1]; 50XCmax
  Cytochrome c release 50XCmax: 0
[1]; 100XCmax
  Cytochrome c release 100XCmax: 0
[2]; 1XCmax
  State 3 respiration driven by glutamate/malate at 1XCmax: 0
  State 3 respiration driven by succinate at 1XCmax: 0
  State 4 respiration driven by glutamate/malate at 1XCmax: 0
  State 4 respiration driven by succinate at 1XCmax: 0
[2]; 2.5XCmax
  State 3 respiration driven by glutamate/malate at 2.5XCmax: 0
  State 3 respiration driven by succinate at 2.5XCmax: 0
  State 4 respiration driven by glutamate/malate at 2.5XCmax: 0
  State 4 respiration driven by succinate at 2.5XCmax: 0
[2]; 5XCmax
  State 3 respiration driven by glutamate/malate at 5XCmax: 0
  State 3 respiration driven by succinate at 5XCmax: 0
  State 4 respiration driven by glutamate/malate at 5XCmax: 0
  State 4 respiration driven by succinate at 5XCmax: 0
[2]; 10XCmax
  State 3 respiration driven by glutamate/malate at 10XCmax: 0
  State 3 respiration driven by succinate at 10XCmax: 0
  State 4 respiration driven by glutamate/malate at 10XCmax: 0
  State 4 respiration driven by succinate at 10XCmax: 0
[2]; 20XCmax
  State 3 respiration driven by glutamate/malate at 20XCmax: 0
  State 3 respiration driven by succinate at 20XCmax: 0
  State 4 respiration driven by glutamate/malate at 20XCmax: 0
  State 4 respiration driven by succinate at 20XCmax: 0
[2]; 30XCmax
  State 3 respiration driven by glutamate/malate at 30XCmax: 0
  State 3 respiration driven by succinate at 30XCmax: 0
  State 4 respiration driven by glutamate/malate at 30XCmax: 0
  State 4 respiration driven by succinate at 30XCmax: 0
[2]; 50XCmax
  State 3 respiration driven by glutamate/malate at 50XCmax: 0
  State 3 respiration driven by succinate at 50XCmax: 0
  State 4 respiration driven by glutamate/malate at 50XCmax: 0
  State 4 respiration driven by succinate at 50XCmax: 0
[2]; 100XCmax
  State 3 respiration driven by glutamate/malate at 100XCmax: 0
  State 3 respiration driven by succinate at 100XCmax: 0
  State 4 respiration driven by glutamate/malate at 100XCmax: 0
  State 4 respiration driven by succinate at 100XCmax: 0
RCC III
  RCC III at 100XCmax: 0
[3]; read-out: Cmax at µM
  Cmax: 0.18 µM
[3]
  Cmax: 85.8 ng/mL
[4]; 1XCmax
  MMP measured by Rhodamine 123 at 1XCmax: 0
[4]; 2.5XCmax
  MMP measured by Rhodamine 123 at 2.5XCmax: 0
[4]; 5XCmax
  MMP measured by Rhodamine 123 at 5XCmax: 0
[4]; 10XCmax
  MMP measured by Rhodamine 123 at 10XCmax: 0
[4]; 20XCmax
  MMP measured by Rhodamine 123 at 20XCmax: 0
[4]; 30XCmax
  MMP measured by Rhodamine 123 at 30XCmax: 0
[4]; 50XCmax
  MMP measured by Rhodamine 123 at 50XCmax: 0
[4]; 100XCmax
  MMP measured by Rhodamine 123 at 100XCmax: 0
RCC V; 5XCmax
  RCC V at 5XCmax: 0
RCC V; 50XCmax
  RCC V at 50XCmax: 0
[5]; 1XCmax
  ROS measured by CM-H2DCFDA at 1XCmax: 0
[5]; 2.5XCmax
  ROS measured by CM-H2DCFDA at 2.5XCmax: 0
[5]; 5XCmax
  ROS measured by CM-H2DCFDA at 5XCmax: 0
[5]; 10XCmax
  ROS measured by CM-H2DCFDA at 10XCmax: 0
[5]; 20XCmax
  ROS measured by CM-H2DCFDA at 20XCmax: 0
[5]; 30XCmax
  ROS measured by CM-H2DCFDA at 30XCmax: 0
[5]; 50XCmax
  ROS measured by CM-H2DCFDA at 50XCmax: 0
[5]; 100XCmax
  ROS measured by CM-H2DCFDA at 100XCmax: 0
RCC I
  RCC I at 10XCmax: 0
